Question: For `Cc1cc(-c2ccc3ncc(NC(=O)Nc4ccc(Cl)c(Cl)c4)nc3c2)cc(C)c1O` [Compound 47, 1-(3,4-Dichlorophenyl)-3-[7-(4-hydroxy-3,5-dimethylphenyl)quinoxalin-2-yl]urea], which melting point is on record?
Answer: > 300 °C

Question: For `O=C(Nc1cnc2ccc(-c3cc(Cl)c(O)c(Cl)c3)cc2n1)NC1CCCC1` [Compound 81, 1-Cyclopentyl-3-[7-(3,5-dichloro-4-hydroxy-phenyl)-quinoxalin-2-yl]-urea], which melting point is on record?
Answer: 295 to 296 °C

Question: Which melting point does the source give for `CNC(=O)Nc1cnc2ccc(-c3cc(C)c(O)c(C)c3)cc2n1` [Compound 16, 1-[7-(4-Hydroxy-3,5-dimethylphenyl)quinoxalin-2-yl]-3-methylurea] here?
Answer: 251 °C

Question: Which melting point does the source give for `CCCCCCNC(=O)Nc1cnc2ccc(-c3cc(C)c(O)c(C)c3)cc2n1` [Compound 35, 1-Hexyl-3-[7-(4-hydroxy-3,5-dimethylphenyl)quinoxalin-2-yl]urea] here?
Answer: 272 to 273 °C

Question: For `CC(C)NC(=O)Nc1cnc2ccc(-c3cc(Cl)c(O)c(Cl)c3)cc2n1` [Compound 76, 1-[7-(3,5-Dichloro-4-hydroxy-phenyl)-quinoxalin-2-yl]-3-isopropyl-urea], which melting point is on record?
Answer: 298 to 300 °C

Question: For `COc1ccc(NC(=O)Nc2cnc3ccc(-c4cc(C)c(O)c(C)c4)cc3n2)cc1` [Compound 48, 1-[7-(4-Hydroxy-3,5-dimethylphenyl)quinoxalin-2-yl]-3-(4-methoxy-phenyl)urea], which melting point is on record?
Answer: > 300 °C

Question: Which melting point does the source give for `Cc1cc(-c2ccc3ncc(NC(=O)Nc4cccnc4)nc3c2)cc(C)c1O` [Compound 52, 1-[7-(4-Hydroxy-3,5-dimethylphenyl)quinoxalin-2-yl]-3-pyridin-3-ylurea] here?
Answer: 298 to 300 °C

Question: With `CCNC(=S)Nc1cnc2ccc(-c3cc(Cl)c(O)c(Cl)c3)cc2n1` [Compound 88, 1-[7-(3,5-Dichloro-4-hydroxy-phenyl)-quinoxalin-2-yl]-3-ethyl-thiourea] as the compound, how does the melting point read?
Answer: 237 to 238 °C

Question: Which melting point does the source give for `CCCCCNC(=O)Nc1cnc2ccc(-c3cc(Cl)c(O)c(Cl)c3)cc2n1` [Compound 71, 1-[7-(3,5-Dichloro-4-hydroxy-phenyl)-quinoxalin-2-yl]-3-pentyl-urea] here?
Answer: 297 to 298 °C

Question: For `Oc1c(Cl)cc(-c2ccc3ncc(NC(=S)NC4CCCCC4)nc3c2)cc1Cl` [Compound 21, 1-Cyclohexyl-3-[7-(3,5-dichloro-4-hydroxyphenyl)quinoxalin-2-yl]-thiourea], which melting point is on record?
Answer: 284 °C

Question: With `Cc1cc(-c2ccc3ncc(NC(=S)NC(C)(C)C)nc3c2)cc(C)c1O` [Compound 25, 1-tert-Butyl-3-[7-(4-hydroxy-3,5-dimethylphenyl)quinoxalin-2-yl]thiourea] as the compound, how does the melting point read?
Answer: 238 to 240 °C

Question: With `O=C(NCCCc1ccccc1)Nc1cnc2ccc(-c3cc(Cl)c(O)c(Cl)c3)cc2n1` [Compound 84, 1-[7-(3,5-Dichloro-4-hydroxy-phenyl)-quinoxalin-2-yl]-3-(3-phenyl-propyl)-urea] as the compound, how does the melting point read?
Answer: 271 to 274 °C

Question: For `CCCCCNC(=O)Nc1cnc2ccc(-c3cc(C)c(O)c(C)c3)cc2n1` [Compound 33, 1-[7-(4-Hydroxy-3,5-dimethylphenyl)quinoxalin-2-yl]-3-pentylurea], which melting point is on record?
Answer: 274 to 275 °C

Question: Which melting point does the source give for `CCCCCCCNC(=O)Nc1cnc2ccc(-c3cc(Cl)c(O)c(Cl)c3)cc2n1` [Compound 75, 1-[7-(3,5-Dichloro-4-hydroxy-phenyl)-quinoxalin-2-yl]-3-heptyl-urea] here?
Answer: 289 to 291 °C

Question: For `Cc1cc(-c2ccc3ncc(NC(=O)N[C@H](C)C(C)C)nc3c2)cc(C)c1O` [Compound 53, 1-((R)-1,2-Dimethylpropyl)-3-[7-(4-hydroxy-3,5-dimethylphenyl)-quinoxalin-2-yl]urea], which melting point is on record?
Answer: 265 °C

Question: Which melting point does the source give for `CC(C)NC(=S)Nc1cnc2ccc(-c3cc(Cl)c(O)c(Cl)c3)cc2n1` [Compound 91, 1-[7-(3,5-Dichloro-4-hydroxy-phenyl)-quinoxalin-2-yl]-3-isopropyl-thiourea] here?
Answer: 276 to 278 °C

Question: For `Oc1c(Cl)cc(-c2ccc3ncc(NC(=S)NC4CCCCCC4)nc3c2)cc1Cl` [Compound 92, 1-Cycloheptyl-3-[7-(3,5-dichloro-4-hydroxy-phenyl)-quinoxalin-2-yl]-thiourea], which melting point is on record?
Answer: 281 to 283 °C
